According to paper PMC7672604, “Design, Synthesis, Molecular Docking, Antiapoptotic and Caspase-3 Inhibition of New 1,2,3-Triazole/Bis-2(1H)-Quinolinone Hybrids” (Molecules, 2020):
Where “and” joins values, the source holds several entries; their conditions need not be identical. Equal entries are not always repeated.

How the values were obtained:
[1] = test system: testis of I/R rats; experiment: Testicular histopathology (H&E, Cosentino's score, Johnson's scoring) in I/R rats; assay type: in vivo; conditions: for Histopathological/spermatogenesis scoring difference compared to the reference (NAC): Cosentino's score and Johnson's scoring, p-value < 0.005; for Histopathological finding in testis sections: H&E sections
Excerpt: Also, it decreased spermatogenesis when compared to the control group by using Johnson’s scoring system (Figure 9B).
The seminiferous tubules were seen lined with stratified testicular epithelium rested on basement membranes. […] Ruptured tubules and distorted Leydig cells and sloughed cells could be also observed (Figure 10B). […] Distorted Leydig cells with dilated blood vessels (BV) were frequently seen among the sections (Figure 12). […] Dilated blood vessels and the presence of amyloid substance were also found (Figure 13).
Multiple testicular specimens were stained by hematoxylin-eosin (ab245880, Abcam, Cambridge, MA, USA) using Cosentino’s score for semi-quantitation of pathological changes in different seminiferous tubules. By using Johnson’s scoring system, the effect of ischemia on the spermatogenesis can be studied (See Supporting Materials).
Semi-quantitative data were measured and counted per section in ten randomly selected non-overlapping fields using power × 400 magnifications of the sections from each rat. The results were carried out using the Image J program analysis software (Image J 1.48V, Maryland, MD, USA; Wayne Rasb and National Institutes of Health). […]
4. Histopathological Investigation
Multiple testicular specimens were fixed in Bouin's solution for about 24 hour, dehydrated in an alcohol grades, cleaned with xylene and then embedded in paraffin wax. Tissue sections (about six μm) were stained by haematoxylin–eosin (H&E) and were studied by an experienced histologist. In the current study, we used Cosentino's score for semi-quantitation of pathological changes on different seminiferous tubules in the whole groups by grading these tubules between one and four, and the mean scores were taken by dividing the totality to the whole number of testicular tubules .
By using Johnson’s scoring system, the effect of ischemia on the spermatogenesis can be studied.
The grades were counted one to ten, and the total scores were taken by dividing the totality to the whole number of testicular tubules.
4.2.Histopathological grading score (Cosentino's score)
I Normal testicular structure
II less orderly germinal cells with closely packed seminiferous tubules III Anarchic sloughed germinal cells, with less pyknotic nuclei size and less distinct seminiferous […]
IV Closely packed seminiferous tubules and coagulative necrosis
Note: Semi-quantitation of pathological changes on different seminiferous tubules in the whole groups by grading the tubules between 1 and 4, and the mean scores were obtained by dividing the totality to the whole number of testicular tubules.
4.3.Spermatogenesis grading; Score Morphological picture
10 Normal spermatogenesis
9 less defect in spermatogenesis with multiple late spermatids, little disorganized epithelium 8 Less than five spermatozoa/tubule, less late spermatids
7 Absence of spermatozoa, absent late spermatids, more early spermatids 6 No spermatozoa, absence of late spermatids with little early spermatids 5 No spermatozoa or spermatids, more spermatocytes
4 No spermatozoa or spermatids, fewer spermatocytes
2 No germinal cells, only Sertoli cells
1 No seminiferous epithelium
Note: By using Johnsen's scoring system, the effect of ischaemia on the spermatogenesis can be detected. The grades were from 1 to 10, and the total scores were taken by dividing to the whole number of testicular tubules.

[2] = test system: cytochrome C; experiment: Cytochrome C ELISA in SR human cell line; assay type: cell-based
Protocol: The 1,2,3-triazole/biquinolinone derivative 6c was evaluated for cytochrome C against the SR human cell line and the results are listed in Table 4.
Cells were collected from American Type Culture Collection to be grown in […] containing 10% fetal bovine serum at 37 °C, stimulated with the compounds to be tested for cytochrome C using Cytochrome C Human ELISA Kit (ab119521—Cytochrome C Human ELISA Kit, Vaccera institute, Egypt) (See Supplementary Materials). […]
• Equilibrate all materials and prepared reagents to room temperature prior to use.
• It is recommended to assay all standards, controls and samples in duplicate.
13.1. Prepare all reagents, working standards, and samples as directed in the previous sections.
Determine the number of microplate strips required to test the desired number of samples plus […]
appropriate number of wells needed for running blanks and standards. Predilute samples before […]
starting the test procedure with one-part sample to one-part 1X Assay Buffer.
13.2. Wash the microplate twice with approximately 400 μL 1X Wash Buffer per well with […]
thorough aspiration of microplate contents between washes. Allow the 1X Wash Buffer to remain in […]
Note: The color development on the plate should be monitored and the substrate reaction stopped […]
the stop solution when the highest standard has developed a dark blue color. Alternatively, the color development can be monitored by the ELISA reader at 620 nm. […]
Note: It is important that the Stop Solution is mixed quickly and uniformly throughout the microplate to completely inactivate the enzyme. Results must be read immediately after the Stop Solution is added or within one hour if the microplate strips are stored at 2 - 8°C in the dark.
13.15. Read absorbance of each microplate on a spectrophotometer using 450 nm as the primary wavelength (optionally 620 nm as the reference wavelength; 610 nm to 650 nm is acceptable).
Blank the plate reader according to the manufacturer's instructions by using the blank wells.
Determine the absorbance of both the samples and the standards. […]

SMILES	Histopathological/spermatogenesis scoring difference compared to the reference (NAC) [1]	Histopathological finding in testis sections [1]	Cyt C Conc [2]	Cyt C Fold Change ([2]; down-expression relative to control)
Cc1ccc2[nH]c(=O)cc(OCc3cn(-c4cc(=O)[nH]c5ccccc45)nn3)c2c1 [6e, 6-Methyl-4-((1-(2-oxo-1,2-dihydroquinolin-4-yl)-1H-1,2,3-triazol-4-yl)methoxy)quinolin-2(1H)-one]	weak significant differences	dilated seminiferous tubules		
COc1ccc2[nH]c(=O)cc(-n3cc(COc4cc(=O)[nH]c5ccccc45)nn3)c2c1 [6c, 6-Methoxy-4-(4-(((2-oxo-1,2-dihydroquinolin-4-yl)oxy)methyl)-1H-1,2,3-triazol-1-yl)-quinolin-2(1H)-one]			0.28 ng/mL and 0.28 ± 0.011 ng/mL	
CC(=O)N[C@@H](CS)C(=O)O [NAC, N-acetylcysteine, reference compound]		more or less normal seminiferous tubules and Leydig cells except some areas displayed distorted tubules and widening of inter-tubular spaces	0.24 ± 0.019 ng/mL	4.13 fold
COc1ccc2[nH]c(=O)cc(OCc3cn(-c4cc(=O)[nH]c5ccccc45)nn3)c2c1 [6g, 6-Methoxy-4-((1-(2-oxo-1,2-dihydroquinolin-4-yl)-1H-1,2,3-triazol-4-yl)methoxy)quinolin-2-(1H)-one]	weak significant differences	dilated seminiferous tubules		
Cn1c(=O)cc(-n2cc(COc3cc(=O)[nH]c4ccccc34)nn2)c2ccccc21 [6d, 1-Methyl-4-(4-(((2-oxo-1,2-dihydroquinolin-4-yl)oxy)methyl)-1H-1,2,3-triazol-1-yl)quinolin-2(1H)-one]	highly significant histopathological difference	ruptured seminiferous tubules with distorted Leydig cells		
Cc1ccc2[nH]c(=O)cc(OCc3cn(-c4cc(=O)[nH]c5ccc(C)cc45)nn3)c2c1 [6f, 6-Methyl-4-((1-(6-methyl-2-oxo-1,2-dihydroquinolin-4-yl)-1H-1,2,3-triazol-4-yl)meth-oxy)quinolin-2(1H)-one]	highly significant histopathological difference	ruptured seminiferous tubules with distorted Leydig cells		
